From patent US20010027213A1, “Use of pyrethroid compounds to promote hair growth” (priority 1998, published 2001)
Marks after values point to notes of the source that are not given here.

Columns and labels:
Assay type in all cases: in vivo
mice (C3H strain) = experiment: Ear thickness (primary skin irritancy) after topical application, Example 1; settings: for Ear thickness compared to ethanol: 1% in ethanol
Experimental: The following example was performed to determine if pyrethroid compounds cause skin irritation (as indicated by ear thickness in mice). Skin irritants may contribute to promoting hair growth.
Prior to the experiment, ear thickness of mice (C3H strain, female, 16 weeks of age, n=3/group) was measured with a thickness gage (Mitsutoyo Corp.). After measuring ear thickness of both ears, 10 μL of ethanol was applied on left ear and 10 μL of a pyrethroid solution (1% pyrethroid compound in ethanol) was applied to the right ear. Ear thickness was measured for three consecutive days after administration.

mice (Sencar strain) = experiment: Ear thickness after TPA plus pyrethroid application, Example 2
Experimental: Another ear thickness experiment was performed. Ear thickness of mice (Sencar strain, female, 10 weeks of age, n =3/group) was measured with a thickness gage (Mitsutoyo Corp.). After measuring the thickness of both ears at the beginning of the experiment, 20 μL of 12-O-tetradecanoyl-phorbol 13-acetate (TPA) at a concentration of 10^−4 M in acetone was applied on both ears, followed by the application of 10 μL of ethanol on the left ears and 10 μL of the four compositions tested in Example 1 on the right ears (at a concentration of 1% of pyrethroid compound in ethanol solution). Again, ear thickness was monitored over three consecutive days following administration of the compositions.

mice of the C3H strain = experiment: Skin irritancy on clipped back skin, visual score, Example 3; settings: three repeated topical administration, 1% in ethanol
Experimental: This experiment was conducted to test the skin irritancy of the compositions of this invention on hair-growing areas of test subjects, i.e., female mice (10 weeks old) of the C3H strain (n=5 group). After clipping the hair of the back skin of mice with an electric clipper, 5 μL/cm^2 of each four composition tested in Examples 1 and 2 (at a concentration of 1% in an ethanol solution) were applied. The application was administered once a day, for 3 consecutive days. Skin irritation was evaluated by unaided visual inspection at the end of the third day.

C3H strain mice [1] = experiment: Hair growth on clipped back skin, topical daily application, Example 4; set-up: Level of hair growth (unaided visual inspection): scale not given here; settings: for Promoting hair growth: 1% topical daily; for Level of hair growth (unaided visual inspection): 1%, 5 μL/cm^2 daily, n=5/group
Experimental: (§1) The ability of topical administration of pyrethroid compounds to promote hair growth was assessed in female C3H strain mice (10 weeks old; n=5/group). Hair on the back skin of the mice was clipped carefully with an electric clipper. 5 μL/cm^2 of the five compositions tested in the examples above were applied to the mice daily. The level of hair growth at the applied skin areas were evaluated by unaided visual inspection at the indicated time.

C3H strain mice [2] = experiment: Hair growth on clipped back skin, repeat with minoxidil control, Example 5; set-up: Level of hair growth (unaided visual inspection): scale not given here; settings: for Promoting hair growth: concentrations of 0.1% and 1% in ethanol solutions
Experimental: as §1, with “time. Cyclosporin A was used as a control.” for “time.”
The experiment described in Example 4 was repeated with a commercially available hair growth-promoting compound (5% minoxidil) as a control.

[3] = day 0 (before application), C3H female mice, n=3
[4] = day 1, 10 μL of 1% in ethanol on right ear, C3H mice
[5] = day 2, 10 μL of 1% in ethanol on right ear, C3H mice
[6] = day 3, 10 μL of 1% in ethanol on right ear, C3H mice
[7] = day 0 (before application), Sencar female mice, n=3
[8] = day 1, 20 μL TPA 10^−4 M in acetone then 10 μL of 1% in ethanol, Sencar mice
[9] = day 2, 20 μL TPA 10^−4 M in acetone then 10 μL of 1% in ethanol, Sencar mice
[10] = day 3, 20 μL TPA 10^−4 M in acetone then 10 μL of 1% in ethanol, Sencar mice

Row | SMILES | Ear thickness compared to ethanol (mice (C3H strain); C3H mice) | Right ear thickness (mice (C3H strain); [3]) | Right ear thickness (mice (C3H strain); [4]) | Right ear thickness (mice (C3H strain); [5]) | Right ear thickness (mice (C3H strain); [6]) | Right ear thickness (mice (Sencar strain); [7]) | Right ear thickness (mice (Sencar strain); [8]) | Right ear thickness (mice (Sencar strain); [9]) | Right ear thickness (mice (Sencar strain); [10]) | Skin irritation (redness) (mice of the C3H strain) | Level of hair growth (unaided visual inspection) (C3H strain mice [1]; Day 7) | Level of hair growth (unaided visual inspection) (C3H strain mice [1]; Day 14) | Level of hair growth (unaided visual inspection) (C3H strain mice [1]; Day 19) | Level of hair growth (unaided visual inspection) (C3H strain mice [1]; Day 29) | Level of hair growth (unaided visual inspection) (C3H strain mice [1]; Day 36) | Level of hair growth (unaided visual inspection) (C3H strain mice [2]; 0.01%, Week 1) | Level of hair growth (unaided visual inspection) (C3H strain mice [2]; 0.01%, Week 2) | Level of hair growth (unaided visual inspection) (C3H strain mice [2]; 0.01%, Week 3) | Level of hair growth (unaided visual inspection) (C3H strain mice [2]; 0.01%, Week 4) | Level of hair growth (unaided visual inspection) (C3H strain mice [2]; 0.01%, Week 5) | further results
1 | CC(C)C(C(=O)OC(C#N)c1cccc(Oc2ccccc2)c1)c1ccc(Cl)cc1 (stereo not shown) [Fenvalerate, fenvalerate] | did not increase ear thickness | 27.3 ×0.01 mm | 28.0 ×0.01 mm | 28.0 ×0.01 mm | 27.0 ×0.01 mm | 24.0 ×0.01 mm | 26.3 ×0.01 mm | 26.7 ×0.01 mm | 26.7 ×0.01 mm | failed to cause skin irritation | 0 | 0 | 1 | 4 | 4 | 0 | 0 | 0 | 0 | 0 | Promoting hair growth (C3H strain mice [1]): effective in promoting hair growth; Level of hair growth (unaided visual inspection) (C3H strain mice [2]; 0.01%, Week 6): 0; Level of hair growth (unaided visual inspection) (C3H strain mice [2]; 0.1%, Week 1): 0; Level of hair growth (unaided visual inspection) (C3H strain mice [2]; 0.1%, Week 2): 0; Level of hair growth (unaided visual inspection) (C3H strain mice [2]; 0.1%, Week 3): 5; Level of hair growth (unaided visual inspection) (C3H strain mice [2]; 0.1%, Week 4): 5; Level of hair growth (unaided visual inspection) (C3H strain mice [2]; 0.1%, Week 5): 5; Level of hair growth (unaided visual inspection) (C3H strain mice [2]; 0.1%, Week 6): 5; Level of hair growth (unaided visual inspection) (C3H strain mice [2]; 1%, Week 1): 0; Level of hair growth (unaided visual inspection) (C3H strain mice [2]; 1%, Week 2): 0*; Level of hair growth (unaided visual inspection) (C3H strain mice [2]; 1%, Week 3): 3*; Level of hair growth (unaided visual inspection) (C3H strain mice [2]; 1%, Week 4): 5; Level of hair growth (unaided visual inspection) (C3H strain mice [2]; 1%, Week 5): 5; Level of hair growth (unaided visual inspection) (C3H strain mice [2]; 1%, Week 6): 5; Promoting hair growth (C3H strain mice [2]): effective in promoting hair growth
2 | CC1(C)C(C=C(Cl)Cl)C1C(=O)OCc1cccc(Oc2ccccc2)c1 (stereo not shown) [Permethrin, permethrin] | did not increase ear thickness | 27.3 ×0.01 mm | 27.7 ×0.01 mm | 27.7 ×0.01 mm | 28.3 ×0.01 mm | 23.3 ×0.01 mm | 27.3 ×0.01 mm | 27.0 ×0.01 mm | 27.7 ×0.01 mm | failed to cause skin irritation | 0 | 0 | 0 | 0 | 0 | 0 | 0 | 0 | 0 | 0 | Level of hair growth (unaided visual inspection) (C3H strain mice [2]; 0.01%, Week 6): 0; Level of hair growth (unaided visual inspection) (C3H strain mice [2]; 0.1%, Week 1): 0; Level of hair growth (unaided visual inspection) (C3H strain mice [2]; 0.1%, Week 2): 0; Level of hair growth (unaided visual inspection) (C3H strain mice [2]; 0.1%, Week 3): 0; Level of hair growth (unaided visual inspection) (C3H strain mice [2]; 0.1%, Week 4): 0; Level of hair growth (unaided visual inspection) (C3H strain mice [2]; 0.1%, Week 5): 0; Level of hair growth (unaided visual inspection) (C3H strain mice [2]; 0.1%, Week 6): 0; Level of hair growth (unaided visual inspection) (C3H strain mice [2]; 1%, Week 1): 0; Level of hair growth (unaided visual inspection) (C3H strain mice [2]; 1%, Week 2): 0; Level of hair growth (unaided visual inspection) (C3H strain mice [2]; 1%, Week 3): 0; Level of hair growth (unaided visual inspection) (C3H strain mice [2]; 1%, Week 4): 0; Level of hair growth (unaided visual inspection) (C3H strain mice [2]; 1%, Week 5): 0; Level of hair growth (unaided visual inspection) (C3H strain mice [2]; 1%, Week 6): 1
3 | CC1(C)C(C=C(Cl)Cl)C1C(=O)OC(C#N)c1cccc(Oc2ccccc2)c1 (stereo not shown) [Cypermethrin, cypermethrin] | did not increase ear thickness | 27.7 ×0.01 mm | 27.7 ×0.01 mm | 27.3 ×0.01 mm | 28.0 ×0.01 mm | 24.0 ×0.01 mm | 26.7 ×0.01 mm | 28.3 ×0.01 mm | 27.3 ×0.01 mm | failed to cause skin irritation | 0 | 0 | 2 | 4 | 5 | 0 | 0 | 0 | 0 | 0 | Promoting hair growth (C3H strain mice [1]): effective in promoting hair growth; Level of hair growth (unaided visual inspection) (C3H strain mice [2]; 0.01%, Week 6): 0; Level of hair growth (unaided visual inspection) (C3H strain mice [2]; 0.1%, Week 1): 0; Level of hair growth (unaided visual inspection) (C3H strain mice [2]; 0.1%, Week 2): 0; Level of hair growth (unaided visual inspection) (C3H strain mice [2]; 0.1%, Week 3): 5; Level of hair growth (unaided visual inspection) (C3H strain mice [2]; 0.1%, Week 4): 5; Level of hair growth (unaided visual inspection) (C3H strain mice [2]; 0.1%, Week 5): 5; Level of hair growth (unaided visual inspection) (C3H strain mice [2]; 0.1%, Week 6): 5; Level of hair growth (unaided visual inspection) (C3H strain mice [2]; 1%, Week 1): 0; Level of hair growth (unaided visual inspection) (C3H strain mice [2]; 1%, Week 2): 0; Level of hair growth (unaided visual inspection) (C3H strain mice [2]; 1%, Week 3): 5; Level of hair growth (unaided visual inspection) (C3H strain mice [2]; 1%, Week 4): 5; Level of hair growth (unaided visual inspection) (C3H strain mice [2]; 1%, Week 5): 5; Level of hair growth (unaided visual inspection) (C3H strain mice [2]; 1%, Week 6): 5; Promoting hair growth (C3H strain mice [2]): effective in promoting hair growth
